These results are taken from US20200361871A1 (Enterprise Therapeutics Ltd., priority 2018, published 2020).

This assay deals with human TMEM16A (TMEM16Aabc variant) (Homo sapiens, UniProt Q5XXA6, DEL476-501, form not given). The assay can be described thus: Automated whole-cell patch clamp (Qpatch) TMEM16A potentiator assay in FRT cells stably expressing human TMEM16A. The class given is cell-based. The following applies: for % Potentiation @ 3.33 μM Avg: 3.33 μM solution of test compound, percentage increase of baseline TMEM16A current; for EC50: calculated EC50, Qpatch TMEM16A current at +70 mV. The gist of the method:
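FRT cells stably expressing human TMEM16Aabc were recorded by automated whole-cell patch clamp, with intracellular Ca2+ buffered for ~EC20 activation, holding −70 mV and step to +70 mV at 0.05 Hz. Compound was applied cumulatively, 5 min per concentration. Peak current increase as % of baseline was fitted to give EC50 and maximum efficacy.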

The structures appear in SMILES notation.

human TMEM16A (TMEM16Aabc variant), sequence (Q5XXA6 with tags, fused parts or gaps DEL476-501): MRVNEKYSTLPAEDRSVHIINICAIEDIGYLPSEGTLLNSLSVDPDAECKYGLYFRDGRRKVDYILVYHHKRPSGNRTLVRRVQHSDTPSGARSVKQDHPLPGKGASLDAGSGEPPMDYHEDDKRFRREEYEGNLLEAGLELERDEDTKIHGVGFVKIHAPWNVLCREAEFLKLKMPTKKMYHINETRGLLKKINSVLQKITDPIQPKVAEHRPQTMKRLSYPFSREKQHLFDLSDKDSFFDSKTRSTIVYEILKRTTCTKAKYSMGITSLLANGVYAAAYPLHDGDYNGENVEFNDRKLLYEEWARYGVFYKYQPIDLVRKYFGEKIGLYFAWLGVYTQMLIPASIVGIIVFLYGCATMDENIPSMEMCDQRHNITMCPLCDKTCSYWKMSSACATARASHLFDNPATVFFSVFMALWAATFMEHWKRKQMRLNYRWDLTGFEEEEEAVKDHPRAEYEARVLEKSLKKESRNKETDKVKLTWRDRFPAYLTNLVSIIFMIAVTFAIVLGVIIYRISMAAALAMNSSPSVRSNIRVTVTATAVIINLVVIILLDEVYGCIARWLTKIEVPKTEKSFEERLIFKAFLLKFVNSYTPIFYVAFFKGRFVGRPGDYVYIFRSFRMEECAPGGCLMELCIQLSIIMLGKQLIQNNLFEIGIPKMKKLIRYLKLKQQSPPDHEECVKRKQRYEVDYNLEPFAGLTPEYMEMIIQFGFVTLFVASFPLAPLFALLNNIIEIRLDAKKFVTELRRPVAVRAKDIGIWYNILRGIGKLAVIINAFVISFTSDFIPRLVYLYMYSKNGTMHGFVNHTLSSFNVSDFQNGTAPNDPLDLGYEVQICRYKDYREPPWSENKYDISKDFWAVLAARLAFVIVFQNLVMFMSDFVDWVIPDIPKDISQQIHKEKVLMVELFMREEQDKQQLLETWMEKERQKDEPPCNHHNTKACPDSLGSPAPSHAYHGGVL

As usually defined, the EC50 is the concentration needed to bring the measured effect to its halfway point. For `CC1(NC(=O)c2cccc(NC(=O)Cc3cc(Cl)ccc3O)c2)CCCCC1` [Example 71.1, 3-[[2-(5-Chloro-2-hydroxy-phenyl)acetyl]amino]-N-(1-methylcyclohexyl)benzamide], the “% Potentiation @ 3.33 μM Avg” value is 256% and the EC50 is 250 nM.
In the case of `COC(=O)c1ccc(O)c(CC(=O)Nc2cccc(C(=O)NC(C)(C)C)c2)c1` [Example 2.18, Methyl 3-[2-[3-(tert-butylcarbamoyl)anilino]-2-oxo-ethyl]-4-hydroxy-benzoate], the “% Potentiation @ 3.33 μM Avg” value is given as 118% and the EC50 is 1410 nM.
As to `CC(C)(C)NC(=O)c1cc(NC(=O)Cc2ccccc2C#N)ccn1` [Example 23.14, N-tert-Butyl-4-[[2-(2-cyanophenyl)acetyl]amino]pyridine-2-carboxamide], the “% Potentiation @ 3.33 μM Avg” value is 33%.
For the compound `CC(C)(C)NC(=O)c1cc(NC(=O)Cc2ccc3ccccc3c2)ccn1` [Example 5.24, N-tert-Butyl-4-[[2-(2-naphthyl)acetyl]amino]pyridine-2-carboxamide], the “% Potentiation @ 3.33 μM Avg” value is listed as 189% and the EC50 is 140 nM.
For `CC(C)(C)NC(=O)c1cccc(NC(=O)Cc2c(O)ccc(F)c2F)c1` [Example 2.11, N-tert-Butyl-3-[[2-(2,3-difluoro-6-hydroxy-phenyl)acetyl]amino] benzamide] the same measures were 126% and 430 nM.
In the same order, the values of `COC(=O)CC1(NC(=O)c2cc(NC(=O)Cc3cc(Cl)ccc3O)ccn2)CCOCC1` [Example 47.1, Methyl2-[4-[[4-[[2-(5-chloro-2-hydroxy-phenyl)acetyl]amino]pyridine-2-carbonyl]amino]tetrahydropyran-4-yl]acetate] are 156% and 1920 nM.
For the compound `CC(C)(C)NC(=O)c1cc(NC(=O)Cc2ccc3ncoc3c2)ccn1` [Example 5.15, 4-[[2-(1,3-Benzoxazol-6-yl)acetyl]amino]-N-tert-butyl-pyridine-2-carboxamide], the “% Potentiation @ 3.33 μM Avg” value stood at 87%.
As to `O=C(Cc1cc(Cl)ccc1O)Nc1ccnc(C(=O)N[C@H]2CCC[C@@H]2O)c1` [Example 35.17, 4-[[2-(5-Chloro-2-hydroxy-phenyl)acetyl]amino]-N-[(1S,2S)-2-hydroxycyclopentyl]pyridine-2-carboxamide], the “% Potentiation @ 3.33 μM Avg” value came out at 153% and the EC50 is 150 nM.
In the same order, the values of `CC(C)(NC(=O)c1cc(NC(=O)Cc2ccccc2Cl)ccn1)C(F)F` [Example 30.13, 4-[[2-(2-Chlorophenyl)acetyl]amino]-N-(2,2-difluoro-1,1-dimethyl-ethyl)pyridine-2-carboxamide] are 205% and 380 nM.
In the same order, the values of `CC(C)(C)NC(=O)c1cccc(NC(=O)CCc2ccccc2O)c1` [Example 2.5, N-tert-Butyl-3-[3-(2-hydroxyphenyl)propanamido]benzamide] are 51% and 1340 nM.
As to `O=C(Cc1cc(Cl)ccc1O)Nc1ccnc(C(=O)NC2CCNCC2(F)F)c1` (stereo not drawn) [Example 32.8, 4-[[2-(5-Chloro-2-hydroxy-phenyl)acetyl]amino]-N-(3,3-difluoro-4-piperidyl)pyridine-2-carboxamide], the “% Potentiation @ 3.33 μM Avg” value stood at 79%.
Regarding `CC(C)(C)NC(=O)c1cc(NC(=O)Cc2ccc(C(C)(C)C)cc2N)ccn1` [Example 88, 4-[[2-(2-Amino-4-tert-butyl-phenyl)acetyl]amino]-N-tert-butyl-pyridine-2-carboxamide], the “% Potentiation @ 3.33 μM Avg” value was 270% and the EC50 is 240 nM.
For `N#CC1(NC(=O)c2cc(NC(=O)Cc3ccccc3Cl)ccn2)CC1` [Example 30.7, 4-[[2-(2-Chlorophenyl)acetyl]amino]-N-(1-cyanocyclopropyl)pyridine-2-carboxamide] the same measures were 124% and 340 nM.
For `O=C(Cc1cc(Cl)ccc1O)Nc1ccnc(C(=O)N[C@@H]2CCC[C@@H]2O)c1` [Example 35.18, 4-[[2-(5-Chloro-2-hydroxy-phenyl)acetyl]amino]-N-[(1R,2S)-2-hydroxycyclopentyl]pyridine-2-carboxamide] the same measures were 147% and 430 nM.
For `CC(C)(C)NC(=O)c1cccc(NC(=O)Cc2c[nH]c3ccc(F)cc23)c1` [Example 4.2, N-tert-Butyl-3-[[2-(5-fluoro-1H-indol-3-yl)acetyl]amino]benzamide] the same measures were 116% and 660 nM.
As to `O=C(Cc1cc(F)ccc1O)Nc1ccnc(C(=O)NC2(CO)CCOC2)c1` (stereo not drawn) [Example 72, 4-[[2-(5-Fluoro-2-hydroxy-phenyl)acetyl]amino]-N-[3-(hydroxymethyl)tetrahydrofuran-3-yl]pyridine-2-carboxamide], the “% Potentiation @ 3.33 μM Avg” value was found to be 53%.
In the case of `CC(C)(C)NC(=O)c1cc(NC(=O)Cc2ccc(F)cc2O)ccn1` [Example 3.2a, N-tert-Butyl-4-[[2-(4-fluoro-2-hydroxy-phenyl)acetyl]amino]pyridine-2-carboxamide], the “% Potentiation @ 3.33 μM Avg” value is listed as 116% and the EC50 was 160 nM.
In the same order, the values of `CC(C)(C)NC(=O)c1cccc(NC(=O)Cc2cc(C#N)ccc2O)c1` [Example 12, N-tert-Butyl-3-[[2-(5-cyano-2-hydroxy-phenyl)acetyl]amino] benzamide] are 112% and 1760 nM.
For `CC(C)(C)C1CCC(NC(=O)c2cc(NC(=O)Cc3cc(Cl)ccc3O)ccn2)CC1` (stereo not drawn) [Example 39, N-(4-tert-Butylcyclohexyl)-4-[[2-(5-chloro-2-hydroxy-phenyl)acetyl]amino]pyridine-2-carboxamide] the same measures were 262% and 60 nM.
On to `COc1ccc(Cl)cc1CC(=O)Nc1cc(C(=O)NC(C)(C)C)ncn1` [Example 82, N-tert-Butyl-6-[[2-(5-chloro-2-methoxy-phenyl)acetyl]amino]pyrimidine-4-carboxamide], for which the “% Potentiation @ 3.33 μM Avg” value came to 88% and the 50% effective concentration (EC50) is 720 nM.
In the case of `CC(C)(C)NC(=O)c1cc(NC(=O)Cc2cc(Cl)c(CN3CCC(F)(F)C3)cc2O)ccn1` [Example 27.3, N-tert-Butyl-4-[[2-[5-chloro-4-[(3,3-difluoropyrrolidin-1-yl)methyl]-2-hydroxy-phenyl]acetyl]amino]pyridine-2-carboxamide], the “% Potentiation @ 3.33 μM Avg” value is on record as 166% and the EC50 is 290 nM.
With `CC(C)(C)NC(=O)c1cc(NC(=O)Cc2ncccc2O)ccn1` [Example 19, N-tert-Butyl-4-[[2-(3-hydroxy-2-pyridyl)acetyl]amino]pyridine-2-carboxamide], the “% Potentiation @ 3.33 μM Avg” value is on record as 57%.
`CC(C)(C)NC(=O)c1cccc(NC(=O)Cc2cccc(O)c2)c1` [Example 4, N-tert-Butyl-3-[[2-[3-hydroxyphenyl]acetyl]amino]benzamide]: the “% Potentiation @ 3.33 μM Avg” value was found to be 96% and the EC50 was 1500 nM.
In the same order, the values of `COCC(C)(C)NC(=O)c1cccc(NC(=O)Cc2ccccc2O)c1` [Example 1.9, 3-[[2-(2-Hydroxyphenyl)acetyl]amino]-N-(2-methoxy-1,1-dimethyl-ethyl)benzamide] are 79% and 4200 nM.
Consider `O=C(Cc1cc(Cl)ccc1O)Nc1ccnc(C(=O)N[C@H]2CC[C@@H](O)C2)c1` [Example 35.3, 4-[[2-(5-Chloro-2-hydroxy-phenyl)acetyl]amino]-N-[(1s,3r)-3-hydroxycyclopentyl]pyridine-2-carboxamide], for which the “% Potentiation @ 3.33 μM Avg” value is listed as 144%.
As to `COc1ccc(Cl)cc1CC(=O)Nc1ccnc(C(=O)NC(C)(C)C)c1` [Example 5.10, N-tert-Butyl-4-[[2-(5-chloro-2-methoxy-phenyl)acetyl]amino]pyridine-2-carboxamide], the “% Potentiation @ 3.33 μM Avg” value was found to be 78% and the EC50 is 3770 nM.
In the same order, the values of `CC(C)(C)NC(=O)c1cc(NC(=O)Cc2c(O)c(Br)cc(F)c2Br)ccn1` [Example 3.7a, N-tert-butyl-4-[2-(2,5-dibromo-3-fluoro-6-hydroxyphenyl)acetamido]pyridine-2-carboxamide] are 135% and 280 nM.
In the same order, the values of `CC(C)(NC(=O)c1cc(NC(=O)Cc2ccccc2Cl)ccn1)C1CC1` [Example 30.3, 4-[[2-(2-Chlorophenyl)acetyl]amino]-N-(1-cyclopropyl-1-methyl-ethyl)pyridine-2-carboxamide] are 100% and 250 nM.
In the same order, the values of `CC(C)(C)c1ccc(O)c(CC(=O)Nc2ccnc(C(=O)NC3(C#N)CCOCC3)c2)c1` [Example 25.1, 4-[[2-(5-tert-Butyl-2-hydroxy-phenyl)acetyl]amino]-N-(4-cyanotetrahydropyran-4-yl)pyridine-2-carboxamide] are 393% and 140 nM.
With `O=C(Cc1cc(Cl)ccc1O)Nc1ccnc(C(=O)N[C@H]2CCCC[C@@H]2O)c1` [Example 31.3, 4-[2-(5-Chloro-2-hydroxyphenyl)acetamido]-N-[(1s,2s)-2-hydroxycyclohexyl] pyridine-2-carboxamide], the “% Potentiation @ 3.33 μM Avg” value came to 205% and the EC50 is 210 nM.
Regarding `CC(C)(C)NC(=O)c1cc(NC(=O)Cc2ccc(C(C)(C)C)cc2O)ccn1` [Example 90, N-tert-Butyl-4-[[2-(4-tert-butyl-2-hydroxy-phenyl)acetyl]amino]pyridine-2-carboxamide], the “% Potentiation @ 3.33 μM Avg” value is listed as 219% and the EC50 is 120 nM.
For `CC(C)(C)NC(=O)c1cc(NC(=O)Cc2ccccc2C(F)F)ccn1` [Example 23.5, N-tert-Butyl-4-[[2-[2-(difluoromethyl)phenyl]acetyl]amino]pyridine-2-carboxamide], the “% Potentiation @ 3.33 μM Avg” value is 110%.
